PubChem BioAssay AID2060345 (Molecular Pharmacology Branch, DTP, NCI, 2025)
Where “and” joins values, the source holds several entries; their conditions need not be identical. Equal entries are not always repeated. Values belong to the molecule of their own block, whether it stands above or below them.

System: MALME-3M multicell spheroids, viability
Assay: Anticancer human tumor MALME-3M cell line growth inhibition [TAK];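 further: spheroids exposed to drugs for seven days before readout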;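 on viability, T/C: 100% = DMSO vehicle control viability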
Conditions: for viability, T/C: stronger effect = lower value
Source text: Combinatorial screen of targeted agents with TAK-243 and ipatasertib in multi-cell type tumor spheroids
A high-throughput screen of multi-cell type tumor spheroids was designed to identify active combinations of targeted small molecules and TAK-243 or ipatasertib. Complex spheroids include a stromal component modeled by human endothelial cells (HUVEC) and fibroblasts modeled by human mesenchymal stem cells (MSCs). The concentration ranges selected for each drug and investigational agent were based upon clinically achievable concentrations if the clinical Cmax of the agent was known.
Compounds. The drugs and investigational agents: TAK-243 (785004), ipatasertib (767898), everolimus (733504), selumetinib (741078), bortezomib (756655), trametinib (758246), ixazomib (758254), vemurafenib (761431), dabrafenib (764134), sapanisertib (764658), alpelisib (765974), and copanlisib (816437), were obtained from the National Cancer Institute (NCI) Developmental Therapeutics Program Chemical Repository. The FDA-approved anticancer drug set is available from the NCI Developmental Therapeutics Program. […] The stock solutions were prepared in dimethyl sulfoxide (DMSO, Sigma-Aldrich, St. Louis, MO, cat. D2650) at 800-fold the tested concentration and stored at -70 degrees C prior to their use. All drugs and investigational agents were tested over a range starting from a high concentration at or near the clinical Cmax and decreasing in half-log increments. If the clinical Cmax for an agent had not been determined, the highest concentration tested was 10 microM.
NCI60 Cell Culture. NCI60 cell lines were obtained from the NCI Developmental Therapeutics Program Tumor Repository. For each lot of cells, the Repository performed Applied Biosystems AmpFLSTR Identifiler testing with PCR amplification to confirm consistency with the published Identifier STR profile for each cell line. Cells were kept in continuous culture for no more than 20 passages. The optimal seeding densities for each of the cell lines at each time point assessed were determined prior to performing the concentration response studies. Briefly, the NCI60 human tumor lines were grown as monolayers in RPMI 1640 medium supplemented with 10% FBS and 2 mmol/L L-glutamine.
An additional 2 lines were from the NCI60 cell line panel including melanomas, MALME-3M and SK-MEL-2. Pooled donor human umbilical vein endothelial cells (HUVEC, Lonza, cat. CC-2519) and human mesenchymal stem cells (hMSC, Lonza, cat. PT-2501) were purchased from Lonza (Walkersville, MD).
PDMR cell lines were grown in complete medium (DC medium): Dulbecco's modified Eagle's medium (DMEM)/F12 supplemented with 5% fetal bovine serum (FBS), 2 mM L-glutamine, 100 U/mL penicillin and 100 µg/ml streptomycin, 0.4 µg/ml hydrocortisone, 10 ng/ml epidermal growth factor (EGF) recombinant human protein, 24 µg/mL adenine, and 0.1 mg/mL primocin. During culture from frozen stock vials, PDMR cells were cultured in the same medium containing 10 µM Y-27632 (see Table 3). The PDCs were cultured in complete DMEM/F12 media without 10 microM Y-27632 dihydrochloride for at least two passages prior to the screen. The pooled donor HUVEC and hMSC were cultured in endothelial cell growth medium 2 (PromoCell, Heidelberg, Germany, cat. C-22011) and mesenchymal stem cell growth medium 2 (PromoCell, cat. C-28009), respectively. For all experiments, HUVEC and hMSC were used at passages </=5.
For the pre-screen, cell seeding densities were determined from a titration spanning the range from 5,000 to 313 cells per well. The mct-spheroids including 60% malignant cells, 25% HUVEC and 15% MSC dispensed as a mixture into U-bottom Ultra-Low Attachment 384-well plates (Corning, NY)
High-throughput Drug Combination Screening.
Prior to their inoculation into 384-well plates, malignant cells, HUVEC, and hMSC were removed from T flasks using TrypLE express (Thermo Fisher Scientific, cat. 12605036) and harvested by centrifugation for 5 min at 233 x g. […]

IC50 (curve of compound): 0.084 µM and 0.0929 µM
SMILES: COc1c(OCCCN2CCOCC2)ccc2c3n(c(=NC(=O)c4cnc(N)nc4)nc12)CCN3
viability, T/C (compound 0.00316 µM): 92.7% and 95.3% | viability, T/C (compound 0.01 µM): 71.3% and 85.2% | viability, T/C (compound 0.0316 µM): 70.3% and 76.1% | viability, T/C (compound 0.1 µM): 51.1% and 48.3% | viability, T/C (compound 0.316 µM): 19% and 21.5% | viability, T/C (compound 1 µM): 8.97% and 8.52%

IC50 (curve of compound): > 10 µM and 7.08 µM
SMILES: Cc1nc(NC(=O)N2CCCC2C(N)=O)sc1-c1ccnc(C(C)(C)C(F)(F)F)c1 (stereo unspecified)
viability, T/C (compound 0.0316 µM): 100% and 86.7% | viability, T/C (compound 0.1 µM): 98.8% and 96.3% | viability, T/C (compound 0.316 µM): 83.6% and 72.6% | viability, T/C (compound 1 µM): 70.6% and 81.7% | viability, T/C (compound 3.16 µM): 61.6% and 68.2% | viability, T/C (compound 10 µM): 50% and 41.9%

IC50 (curve of compound): 0.0282 µM and 0.032 µM
SMILES: Cn1cnc2c(F)c(Nc3ccc(Br)cc3Cl)c(C(=O)NOCCO)cc21
viability, T/C (compound 0.00949 µM): 82.6% and 84.7% | viability, T/C (compound 0.03 µM): 49% and 52.6% | viability, T/C (compound 0.0949 µM): 22% and 21.7% | viability, T/C (compound 0.3 µM): 15.4% and 16.9% | viability, T/C (compound 0.949 µM): 12% | viability, T/C (compound 3 µM): 5.64% and 5.37%

SMILES: COC1CC2CCC(C)C(O)(O2)C(=O)C(=O)N2CCCCC2C(=O)OC(C(C)CC2CCC(OCCO)C(OC)C2)CC(=O)C(C)C=C(C)C(O)C(OC)C(=O)C(C)CC(C)C=CC=CC=C1C (stereo unspecified) + CC(C)NCC(C(=O)N1CCN(c2ncnc3c2C(C)CC3O)CC1)c1ccc(Cl)cc1
IC50 (curve of first compound, second compound 0.3 µM): > 0.1 µM | IC50 (curve of first compound, second compound 0.949 µM): 0.00897 µM | IC50 (curve of first compound, second compound 3 µM): 0.00151 µM | IC50 (curve of first compound, second compound 9.49 µM): 0.00042 µM | IC50 (curve of first compound, second compound 30 µM): < 0.000316 µM | viability, T/C (second compound 0.3 µM, first compound 0.000316 µM): 87.7% | viability, T/C (second compound 0.3 µM, first compound 0.001 µM): 69.2% | viability, T/C (second compound 0.3 µM, first compound 0.00316 µM): 64.3% | viability, T/C (second compound 0.3 µM, first compound 0.01 µM): 55.7% | viability, T/C (second compound 0.3 µM, first compound 0.0316 µM): 53.8% | viability, T/C (second compound 0.3 µM, first compound 0.1 µM): 51.3% | viability, T/C (second compound 0.949 µM, first compound 0.000316 µM): 89.9% | viability, T/C (second compound 0.949 µM, first compound 0.001 µM): 71.5% | viability, T/C (second compound 0.949 µM, first compound 0.00316 µM): 49.9% | viability, T/C (second compound 0.949 µM, first compound 0.01 µM): 51.8% | viability, T/C (second compound 0.949 µM, first compound 0.0316 µM): 50% | viability, T/C (second compound 0.949 µM, first compound 0.1 µM): 42.4% | viability, T/C (second compound 3 µM, first compound 0.000316 µM): 70.5% | viability, T/C (second compound 3 µM, first compound 0.001 µM): 55.4% | viability, T/C (second compound 3 µM, first compound 0.00316 µM): 40.7% | viability, T/C (second compound 3 µM, first compound 0.01 µM): 32.1% | viability, T/C (second compound 3 µM, first compound 0.0316 µM): 38% | viability, T/C (second compound 3 µM, first compound 0.1 µM): 29.5% | viability, T/C (second compound 9.49 µM, first compound 0.000316 µM): 54.4% | viability, T/C (second compound 9.49 µM, first compound 0.001 µM): 37.1% | viability, T/C (second compound 9.49 µM, first compound 0.00316 µM): 26% | viability, T/C (second compound 9.49 µM, first compound 0.01 µM): 26.4% | viability, T/C (second compound 9.49 µM, first compound 0.0316 µM): 23.6% | viability, T/C (second compound 9.49 µM, first compound 0.1 µM): 21.8% | viability, T/C (second compound 30 µM, first compound 0.000316 µM): 36.2% | viability, T/C (second compound 30 µM, first compound 0.001 µM): 32.8% | viability, T/C (second compound 30 µM, first compound 0.00316 µM): 20.7% | viability, T/C (second compound 30 µM, first compound 0.01 µM): 22.1% | viability, T/C (second compound 30 µM, first compound 0.0316 µM): 19.9% | viability, T/C (second compound 30 µM, first compound 0.1 µM): 19.1%
